According to patent publication US20140342931A1, “METHOD FOR PREDICTING RESPONSE TO ENDOCRINE THERAPY” (PAMGENE B.V., priority 2011, published 2014):

System: Estrogen Receptor alpha (ERα)
Source text: Under tamoxifen, a known antagonist of the ERα, this phosphorylation affects the conformation of ERα and changes its orientation to the protein SRC-1. In this example we studied the effect of ERαSer305 phosphorylation on the binding of cofactors in transfected cells and in breast tumor specimens. We used the methods and coregulator peptide array as described in WO 2008/028978 containing 154 coregulator peptides (table 1).
ERαY/C-transfected U2OS cells were stimulated with cAMP to induce PKA-mediated ERα phosphorylation. The serine-to-alanine mutant ERαSer305Ala-Y/C was used as a negative control (FIG. 1).
The effect of PKA activation on peptide binding was also studied under tamoxifen conditions.

Compound: 4-hydroxy-Tamoxifen [4OH-tamoxifen]
- ERα binding to the control peptide (IDNR13) at saturating tamoxifen concentrations (concentration range up to 10^-5 M, ERα-wt and ERαSer305Ala, with or without cAMP (PKA activation)): largely blocked

Compound: C[C@]12CC[C@@H]3c4ccc(O)cc4CC[C@H]3[C@@H]1CC[C@@H]2O [estradiol, 17-β-Estradiol]
- modulation of ERα binding to coregulators (concentration range of estradiol up to 10^−8 M, control peptide IDNR13 (NCOA1_677_700), wild type and Ser305Ala ERα, cAMP stimulated and control cells): dose dependent modulation
